Results from patent US8802416B2, “Thermostable organic solvent tolerant protease from gram-positive bacteria” (Universiti Putra Malaysia, priority 2009, dated 2014).
Square brackets hold non-standard residues; d marks the D form. Peptide text beside a SMILES is read from it. * marks the point of attachment. Sta = CC(C)C[C@H](N)[C@@H](O)CC(=O)O; Isovaleryl = CC(C)CC(=O)*

Tests used:
[1] = test system: thermophilic Bacillus strain HS08 protease; conditions: cited from earlier work
[2] = test system: protease activity of B. megaterium; conditions: presence of Zn2+; cited from earlier work
[3] = test system: Bacillus sp. TKU004 protease; conditions: zinc ions; cited from earlier work
Rand protease [4] = assay: Effect of inhibitors on protease activity; assay type: biochemical, Bacillus subtilis isolate Rand; conditions: 5 mM inhibitor, 30 min at 37° C., relative to control
Description: Purified Rand protease was incubated with 5 mM of different inhibitors at 37° C. for 30 min.
All the inhibitors were used at 5 mM final concentration.

Rand protease [5] = assay: Effect of metal ions on protease activity; assay type: biochemical, Bacillus subtilis isolate Rand; conditions: 5 mM metal ion, 37° C., 30 min; control no ions
Description: Purified Rand protease was treated with 5 mM of various metal ions at 37° C. for […].
The effect of metal ions on protease activity was determined by incubating the protease with different metal ions at 5 mM final concentration. The metal ions used were K^+, Na^+, Mg^2+, Ca^2+, Mg^2+, Fe^2+, Co^2+, Cu^2+, Zn^2+ and […]. The samples were incubated at 37° C. for 30 min. […] The control contained no ions.

Rand protease [6] = assay: Effect of organic solvents on stability of crude Rand protease (cell-free supernatant); assay type: biochemical, Bacillus subtilis isolate Rand; conditions: 25% (v/v) solvent, 55° C., 150 rpm, 30 min, control distilled water
Description: 1. […] Three ml aliquots of a cell-free supernatant culture were incubated with 1 ml of different organic solvents at 55° C. with shaking at 150 rpm for 30 min.
Each sample was run in triplicate.
Isolate Rand was cultured aerobically at 50° C. for 24 h in the absence of organic solvents. The culture medium was then centrifuged at 12,000×g and 4° C. for 10 min. The supernatant was filtered with a cellulose acetate membrane filter (pore size 0.22 μm). One mL organic solvent was added to 3.0 mL of the cell-free supernatant and the whole mixture was incubated in shaker 150 rpm at 55° C. for 30 min. The samples were removed and immediately vortex prior to assay at zero time and after incubation period. For control the solvent was replaced by distilled water.

[7] = cited from earlier work
Rand protease [8] = assay: Effect of organic solvents on purified Rand protease activity; assay type: biochemical, Bacillus subtilis isolate Rand; conditions: 25% (v/v) solvent, 37° C., 150 rpm, 30 min, no solvent = 100%
Description: . Three ml of purified Rand protease were incubated with 1 ml of different organic solvents at 37° C. with shaking at 150 rpm for 30 min. The activity of the enzyme without any solvent (none) was taken as 100%.
The effects of organic solvents with various log P on protease activity were determined. […] . The control was done in the absent of organic solvent and assay under the same experimental conditions. The protease was incubated in the presence of 25% (v/v) of organic solvents for 30 min. The incubation was performed at 37° C. in water bath shaker with 150 rpm. The samples were removed and immediately vortex prior to assay the protease activity.

SMILES: [Zn+2] [Zn^2+]
- relative activity ([1]; 2 mM Zn2+): 109%
- relative activities [2]: 28%
- activity of the apo-enzyme restored, of the original level [3]: 75%

SMILES: CC(C)CC(=O)N[C@H](C(=O)N[C@H](C(=O)N[C@@H](CC(C)C)[C@@H](O)CC(=O)N[C@@H](C)C(=O)N[C@@H](CC(C)C)[C@@H](O)CC(=O)O)C(C)C)C(C)C [Pepstatin A, pepstatin A] (Isovaleryl-VV[Sta]A[Sta]-OH)
- protease activity retained (Rand protease [4]): ~63%

SMILES: O=S(=O)(F)Cc1ccccc1 [PMSF, phenylmethanesulfonyl fluoride]
- reduction (inhibition) of protease activity (Rand protease [4]): completely inhibited

SMILES: [Ca+2] [Ca^2+]
- influence on proteolytic activity ([1]; Ca2+ ions): did not show any influence
- protease activity in the presence of metal ion (Rand protease [5]): around 89%

SMILES: [Cu+2] [Cu^2+]
- protease activity in the presence of metal ion (Rand protease [5]): inhibitory effects

SMILES: c1ccncc1 [pyridine]
- remaining activity of Rand protease in the presence of organic solvent (Rand protease [6]): no activity was observed

SMILES: CCCCCCCCCCCCCC [n-tetradecane]
- log P [7]: 7.6

SMILES: Cc1ccccc1 [toluene]
- remaining activity of Rand protease in the presence of organic solvent (Rand protease [6]): 130%
- remaining activity of Rand protease in the presence of organic solvent (Rand protease [6]; listed as toluen): enhanced

SMILES: [Mg+2] [Mg^2+]
- protease activity in the presence of metal ion (Rand protease [5]): inhibitory effects

SMILES: [Fe+2] [Fe^2+]
- protease activity in the presence of metal ion (Rand protease [5]): inhibitory effects

SMILES: OCCS [2-mercaptoethanol, 2-Mercaptoethanol]
- reduction (inhibition) of protease activity (Rand protease [4]): About 90%

SMILES: CCCCCCCCCCCC [n-dodecane]
- log P [7]: 6.0

SMILES: [Co+2] [Co^2+]
- protease activity in the presence of metal ion (Rand protease [5]): inhibitory effects

SMILES: [K+] [K^+]
- protease activity in the presence of metal ion (Rand protease [5]): ~112%

SMILES: [Ni+2] [Ni^2+]
- protease activity in the presence of metal ion (Rand protease [5]): inhibitory effects

SMILES: ClC(Cl)Cl [chloroform]
- relative activity remaining in organic solvent (Rand protease [8]): 18%

SMILES: CC(C)C[C@H](NC(=O)[C@@H](O)[C@H](N)Cc1ccccc1)C(=O)O [Bestatin, bestatin]
- protease activity retained (Rand protease [4]): about 95%

SMILES: O[C@@H](CS)[C@@H](O)CS (racemic) [DTT, 1,4-Dithio-DL-threitol]
- reduction (inhibition) of protease activity (Rand protease [4]): 30%
